Assay results from patent publication US20090012089A1, “Oxazolidinone Compounds and Their Use as Metabotropic Glutamate Receptor Potentiators” (ASTRAZENECA AB, priority 2005, published 2009).

Biological target: T1, human mGluR2 (Homo sapiens, UniProt Q14416)
T1 construct: expressed in transfected cells; host or cells: CHO cells, stably transfected; membrane preparation
Assay: [35S]-GTPγS binding assay of mGluR2 receptor activation (allosteric activator activity) with CHO cell membranes
Format: biochemical
Details: membranes from CHO cells stably expressing human mGluR2; in presence of 1 μM glutamate
Method: A [^35S]-GTPγS binding assay was used to functionally assay mGluR2 receptor activation. The allosteric activator activity of compounds at the human mGluR2 receptor were measured using a [^35S]-GTPγS binding assay with membranes prepared from CHO cells which stably express the human mGluR2. The assay is based upon the principle that agonists bind to G-protein coupled receptors to stimulate GDP-GTP exchange at the G-protein. Since [^35S]-GTPγS is a non-hydrolyzable GTP analog, it can be used to provide an index of GDP-GTP exchange and, thus, receptor activation. The GTPγS binding assay therefore provides a quantitative measure of receptor activation.
Membranes were prepared from CHO cells stably transfected with human mGluR2. Membranes (30 μg protein) were incubated with test compound (3 nM to 300 μM) for 15 minutes at room temperature prior to the addition of 1 μM glutamate, and incubated for 30 min at 30° C. in 500 μl assay buffer (20 mM HEPES, 100 mM NaCl, 10 mM MgCl2), containing 30 μM GDP and 0.1 nM [^35S]-GTPγS (1250 Ci/mmol). Reactions were carried out in triplicate in 2 ml polypropylene 96-well plates. Reactions were terminated by vacuum filtration using a Packard 96-well harvester and Unifilter-96, GF/B filter microplates. The filter plates were washed 4×1.5 ml with ice-cold wash buffer (10 mM sodium phosphate buffer, pH 7.4). The filter plates were dried and 35 μl of scintillation fluid (Microscint 20) was added to each well. The amount of radioactivity bound was determined by counting plates on the Packard TopCount. Data was analyzed using GraphPad Prism, and EC50 and Emax values (relative to the maximum glutamate effect) were calculated using non-linear regression.

T1 sequence (Q14416 19-872): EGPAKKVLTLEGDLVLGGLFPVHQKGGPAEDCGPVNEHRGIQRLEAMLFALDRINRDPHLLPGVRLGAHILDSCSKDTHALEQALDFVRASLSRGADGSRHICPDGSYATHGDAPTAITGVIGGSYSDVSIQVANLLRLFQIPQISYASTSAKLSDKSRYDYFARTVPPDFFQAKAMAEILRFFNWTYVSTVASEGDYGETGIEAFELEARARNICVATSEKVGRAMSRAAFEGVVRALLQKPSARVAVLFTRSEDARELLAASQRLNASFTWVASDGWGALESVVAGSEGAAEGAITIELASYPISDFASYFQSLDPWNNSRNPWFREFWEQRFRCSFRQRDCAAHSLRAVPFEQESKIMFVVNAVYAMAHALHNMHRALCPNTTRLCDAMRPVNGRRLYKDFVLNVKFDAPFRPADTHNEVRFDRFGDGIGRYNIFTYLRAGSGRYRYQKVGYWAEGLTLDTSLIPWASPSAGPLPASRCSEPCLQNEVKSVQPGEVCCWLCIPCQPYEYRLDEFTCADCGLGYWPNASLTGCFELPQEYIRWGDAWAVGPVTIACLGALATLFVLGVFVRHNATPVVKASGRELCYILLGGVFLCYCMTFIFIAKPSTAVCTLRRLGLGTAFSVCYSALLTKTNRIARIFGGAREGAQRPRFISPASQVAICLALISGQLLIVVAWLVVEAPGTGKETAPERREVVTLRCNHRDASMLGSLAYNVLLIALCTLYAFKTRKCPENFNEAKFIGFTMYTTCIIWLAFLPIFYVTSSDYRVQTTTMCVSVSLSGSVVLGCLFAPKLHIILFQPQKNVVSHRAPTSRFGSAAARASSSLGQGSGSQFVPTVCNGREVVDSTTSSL

Row | Structure (SMILES) | EC50 [µM]
1 | O=C(NC1CCN(Cc2ccccc2)C1)c1ccc(-c2ccc(CN3C[C@@H](c4ccccc4)OC3=O)cc2)cc1 (stereo in doubt) [Example 10.29, 4′-(2-Oxo-5-(R)-phenyl-oxazolidin-3-ylmethyl)-biphenyl-4-carboxylicacid (1-benzyl-pyrrolidin-3-(S)-yl)-amide] | 0.12
2 | O=C1O[C@H](c2ccccc2)CN1Cc1ccc(OC(F)(F)F)cc1 [Example 3.1, 5-(R)-Phenyl-3-(4-trifluoromethoxy-benzyl)-oxazolidin-2-one] | 1.96
3 | O=C1OC(c2ccc(F)cc2)CN1Cc1ccc(Oc2ccccc2)cc1 (centres unmarked) [Example 13.5, 5-(4-Fluoro-phenyl)-3-(4-phenoxy-benzyl)-oxazolidin-2-one] | 0.39
4 | COc1cncc(-c2ccc(C3CN(Cc4ccc(OC(F)(F)F)cc4)C(=O)O3)cc2)c1 (centres unmarked) [Example 17.2, 5-[4-(5-Methoxy-pyridin-3-yl)-phenyl]-3-(4-trifluoromethoxy-benzyl)-oxa-zolidin-2-one] | 0.91
5 | CN(C)CCNC(=O)c1cccc(-c2ccc(C3CN(Cc4ccc(Cl)cc4)C(=O)O3)cc2)c1 (centres unmarked) [Example 17.3, 4′-[3-(4-Chloro-benzyl)-2-oxo-oxa-zolidin-5-yl]-biphenyl-3-carboxylic acid(2-dimethylamino-ethyl)-amide] | 3.1
